Source: patent US20250041574A1 (TARIS Biomedical LLC, priority 2022, published 2025)
Like-named read-outs stand apart in the source and are kept apart here.

What was measured:
[1] = test system: UM-UC-1 orthotopic bladder tumors; assay: Continuous bladder perfusion in athymic rats with orthotopic UM-UC-1 bladder tumors
Method: Perfusion studies: The bladders of the study animals were cannulated on Day 1 and the animals were allowed to recover for 3 days. On Day 5, UM-UC-1 cells (2×10^6 cells) were injected into the lateral wall of each bladder. […] Based on the in vitro results, target urine concentrations of 0.5, 1.0, and 5.0 μg/mL were used in the perfusion experiments. Body weight, daily urine production, and daily water consumption were recorded. At necropsy, a plasma sample, bladder photographs, and bladder weight measurements were recorded.
The percent reduction in relative tumor weight between the control group and the drug perfusion groups was determined as an initial measure of efficacy. Bladder tissue and tumor samples were also submitted for analysis of FGFR signaling activity by determining the phosphorylated fibroblast growth factor receptor substrate (FRS)2a levels and the pERK to ERK ratio.

[2] = urine
From the text: On Day −7 a catheter was surgically placed in the bladder of each animal. The distal end of the catheter was anchored to a subcutaneous site and attached to a vascular access port (VAP). The port was secured, and the animals were allowed to recover. Each animal was subsequently fitted with a portable infusion pump that was attached to the bladder catheter via the VAP. […] All excreted urine was collected in 24-hour intervals through Day 6 or 8. Blood samples were collected daily on study Days 1 to 8. Bladder tissue samples were collected from each animal at necropsy.

[3] = test system: RT-112 orthotopic bladder tumor; assay: Continuous bladder perfusion in athymic rats with orthotopic RT-112 bladder tumors
[4] = rat, in vivo
From the text: Rat bladders (5 groups of rats, n=3/group) were surgically catheterized under anesthesia and the catheter was externalized, tunneled subcutaneously, and connected to a vascular access harness (VAH) in the neck. Rats were transferred to individual metabolic cages with free access to food and water during the 1-week post-surgery recovery period. […] Plasma and bladder samples were collected at all time points.

[5] = Stability in minipig urine; type: in vitro ADME; conditions: freshly collected minipig urine, 37° C., 6 hours
Method: (§1) At the end of 6-hours post-dialysis incubation, drug was analyzed, and the recovery was calculated against the spiked concentrations.

[6] = In vitro protein binding in human urine; type: in vitro ADME
Method: (§2) Albuminuria/proteinuria had minimal effect on % free form in urine.
as §1

Stability in human urine = type: in vitro ADME; conditions: freshly collected human urine, 37° C., 6 hours
Method: as §1

[7] = dynamic vapor sorption
[8] = In vitro protein binding in rat urine; type: in vitro ADME
Method: as §2, §1

[9] = not given; remark: listed apart in the source
Stability in rat urine = type: in vitro ADME; conditions: freshly collected rat urine, 37° C., 6 hours
Method: as §1

[10] = In vitro protein binding in minipig urine; type: in vitro ADME
Method: as §2, §1

Compound: COc1cc(OC)cc(N(CCNC(C)C)c2ccc3ncc(-c4cnn(C)c4)nc3c2)c1 [erdafitinib, N-(3,5-dimethoxyphenyl)-N′-(1-methylethyl)-N-[3-(1-methyl-1H-pyrazol-4-yl)quinoxalin-6-yl]ethane-1,2-diamine]
- bladder weight vs vehicle control ([1]; 0.5 (p<0.01), 1.0 and 5 μg/mL (p<0.001) nominal urine concentrations, 5 days perfusion): significant dose-related decrease
- percentage change in body weight vs vehicle control ([1]; 0.5, 1.0 and 5.0 μg/mL treatment groups): Statistically non-significant difference
- cage side observations ([1]; 5 days continuous perfusion, 0.5, 1.0, 5.0 μg/mL, any treatment group): no visible signs of abnormal behavior or clinical symptoms
- Daily erdafitinib recoveries, of the average daily amount administered [2]: 15.7%
- bladder weight vs vehicle control ([3]; 1.0 μg/mL perfusate concentration, p<0.05): significant bladder weight reduction
- bladder weight decrease vs vehicle control ([3]; 0.25 and 0.5 μg/mL dose groups): not statistically significant
- percentage change in body weight vs vehicle control ([3]; 0.5, 1.0 and 5.0 μg/mL treatment groups (so in the source), except Group 4 on Day 11 (p<0.05)): Statistically non-significant difference
- body weight loss, maximum mean values ([3]; erdafitinib-treated group, Day 11): up to −3%
- AUC0-120h ([4]; female, Sprague-Dawley, 0.72 mg): 127,000 ng · h/mL
- C96h [4]: BQL
- C120h [4]: BQL
- solubility (normal urine pH range of 5.5 to 7): significant pH-dependent solubility
- stability in urine [5]: sufficiently stable
- Percent erdafitinib free in urine [6]: 95%
- stability in urine (Stability in human urine): sufficiently stable
- DVS [7]: Non-hygroscopic
- Percent erdafitinib free in urine [8]: 84%
- In Vitro Permeation ([9]; EVA (CoTran 9712)): Δ
- In Vitro Permeation ([9]; TPU (EG-80A)): Δ
- In Vitro Permeation ([9]; TPU (HP-60D-35)): ◯
- In Vitro Permeation ([9]; TPU (HP-93A-100)): ◯
- stability in urine (Stability in rat urine): sufficiently stable
- Percent erdafitinib free in urine [10]: 97%

Compound: COc1cc(OC)cc(N(CCNC(C)C)c2ccc3ncc(-c4cnn(C)c4)nc3c2)c1.C[C@H](O)C(=O)O [Erdafitinib L-lactate salt]
- solubility (as function of pH in water and simulated urine at 37° C.): very high solubility over a broad pH range
- DVS [7]: Non-hygroscopic
- In Vitro Permeation ([9]; EVA (CoTran 9712)): ◯
- In Vitro Permeation ([9]; TPU (EG-80A)): Δ
- In Vitro Permeation ([9]; TPU (HP-60D-35)): ◯
- In Vitro Permeation ([9]; TPU (HP-93A-100)): ◯
